Results reported in patent publication US8895504B2, “Amylin derivatives” (priority 2008, dated 2014).
*1 amine or outer side, *2 acyl side, *3 side chain or, on linkers, in order; H or OH if unused. Where a SMILES comes first, the peptide text is derived from it. Bridges are numbered along the chain shown (N, C = ends). The star is where a group is joined. C20 diacid = O=C(O)CCCCCCCCCCCCCCCCCCC(=O)*; γGlu = O=C(O)[C@H](CCC(=O)[*:2])N[*:1]

Biological target: T1, Amylin 3(a) receptor (human calcitonin receptor (CTa) and RAMP-3) (Homo sapiens, UniProt O60896+P30988)
T1 construct: expressed in transfected cells; host or cells: BHK570 cells, stably transfected with a CRE-luciferase reporter
T1 sequence (O60896 24-148): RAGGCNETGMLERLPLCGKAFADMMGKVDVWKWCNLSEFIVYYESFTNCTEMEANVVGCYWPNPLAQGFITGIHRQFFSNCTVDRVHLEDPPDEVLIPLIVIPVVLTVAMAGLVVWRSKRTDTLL
T1 sequence (P30988 25-474): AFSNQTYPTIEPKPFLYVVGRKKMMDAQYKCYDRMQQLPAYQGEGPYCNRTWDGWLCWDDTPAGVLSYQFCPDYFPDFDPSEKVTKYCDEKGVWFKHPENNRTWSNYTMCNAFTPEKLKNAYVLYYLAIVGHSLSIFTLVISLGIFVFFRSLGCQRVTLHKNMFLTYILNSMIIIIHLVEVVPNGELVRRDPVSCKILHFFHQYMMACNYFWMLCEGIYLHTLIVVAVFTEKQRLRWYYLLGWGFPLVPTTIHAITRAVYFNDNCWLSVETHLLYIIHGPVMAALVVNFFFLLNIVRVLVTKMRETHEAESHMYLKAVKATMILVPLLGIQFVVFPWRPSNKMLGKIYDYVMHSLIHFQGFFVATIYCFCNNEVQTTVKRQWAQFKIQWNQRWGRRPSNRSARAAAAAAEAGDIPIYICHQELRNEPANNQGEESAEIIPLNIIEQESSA
Assay: Luciferase assay (III), BHK Amylin 3(a)//CRE-luc cells
Type: cell-based
Details: BHK cells with Amylin 3(a) receptor and CRE luciferase reporter, 4 hours incubation; read-out: Potency Luciferase
Description: It has previously been published (Poyner D R et al 2002, Pharmacological Reviews 54(2) 233-246) that activation of Amylin receptors (coexpression of Calcitonin receptor and receptor activity modifying peptides RAMPs) by Amylin leads to an increase in the intracellular concentration of cAMP. Consequently, transcription is activated at promoters containing multiple copies of the cAMP response element (CRE). It is thus possible to measure Amylin activity by use of a CRE luciferase reporter gene introduced into BHK cells also expressing an Amylin receptor.
2. Construction of an Amylin 3(a)/CRE-luc Cell Line
A BHK570 cell line stably transfected with the human calcitonin receptor (CTa) and a CRE-responsive luciferase reportergene. The cell line was further transfected with RAMP-3, using standard methods. This turns the Calcitonin receptor into an Amylin 3(a) receptor. Methotrexate, Neomycin, and Hygromycin are selection markers for luciferase, the Calcitonin receptor, and RAMP-3, respectively.
3. Amylin Luciferase Assay
To perform activity assays, BHK Amylin 3(a)//CRE-luc cells were seeded in white 96 well culture plates at a density of about 20,000 cells/well. The cells were in 100 μl growth medium (DMEM with 10% FBS, 1% Pen/Strep, 1 mM Na-pyruvate, 250 nM Methotrexate, 500 μg/ml Neomycin, and 400 μg/ml Hygromycin). After incubation overnight at 37° C. and 5% CO2, the growth medium was replaced by 50 μl/well assay medium (DMEM (without phenol red), Glumamax™, 10% FBS, and 10 mM Hepes, pH 7,4). Further, 50 μl/well of standard or sample in assay buffer were added. After 4 hours incubation at 37° C. and 5% CO2, the assay medium with standard or sample were removed and replaced by 100 μl/well PBS. Further, 100 μl/well LucLite™ was added. The plates were sealed and incubated at room temperature for 30 minutes. Finally, luminescence was measured on a TopCounter (Packard) in SPC (single photon counting) mode.

| EC50 [nM] | Compound |
| --- | --- |
| 0.2 | CC[C@H](C)[C@H](NC(=O)[C@@H]1CCCN1C(=O)CNC(=O)[C@H](Cc1ccccc1)NC(=O)[C@H](CC(N)=O)NC(=O)[C@H](CC(N)=O)NC(=O)[C@H](CO)NC(=O)[C@H](CO)NC(=O)[C@H](Cc1c[nH]cn1)NC(=O)[C@H](Cc1c[nH]cn1)NC(=O)[C@H](CC(C)C)NC(=O)[C@H](Cc1ccccc1)NC(=O)[C@H](CC(N)=O)NC(=O)[C@H](C)NC(=O)[C@H](CC(C)C)NC(=O)[C@H](CCCNC(=N)N)NC(=O)[C@H](CCC(N)=O)NC(=O)[C@@H](NC(=O)[C@H](C)NC(=O)[C@@H]1CSSC[C@H](NC(=O)[C@H](CCC(=O)O)NC(=O)CC[C@H](NC(=O)CCCCCCCCCCCCCCCCCCC(=O)O)C(=O)O)C(=O)N[C@@H](CC(N)=O)C(=O)N[C@@H]([C@@H](C)O)C(=O)N[C@@H](C)C(=O)N[C@@H]([C@@H](C)O)C(=O)N1)[C@@H](C)O)C(=O)N[C@@H](CC(C)C)C(=O)N1CCC[C@H]1C(=O)N1CCC[C@H]1C(=O)N[C@H](C(=O)N[C@@H](CC(N)=O)C(=O)N[C@H](C(=O)NCC(=O)N[C@@H](CO)C(=O)N[C@@H](CC(N)=O)C(=O)N[C@H](C(=O)N[C@@H](Cc1ccc(O)cc1)C(N)=O)[C@@H](C)O)C(C)C)[C@@H](C)O [Example 51, N-alpha-[(S)-4-Carboxy-4-(19-carboxynonadecanoylamino)butyryl]-[Glu 1,His17]-pramlintide] ({C20 diacid-γGlu}-ECNTATCATQRLANFLHHSSNNFGPILPPTNVGSNTY-NH2; disulfide 2-7) |
| 0.2 | CC(C)C[C@H](NC(=O)[C@H](CCCNC(=N)N)NC(=O)[C@H](CCC(N)=O)NC(=O)[C@@H](NC(=O)[C@H](C)NC(=O)[C@@H]1CSSC[C@H](NC(=O)[C@H](CCC(=O)O)NC(=O)[C@H](CCCNC(=N)N)NC(=O)[C@H](CCC(=O)O)NC(=O)CC[C@H](NC(=O)CCCCCCCCCCCCCCCCCCC(=O)O)C(=O)O)C(=O)N[C@@H](CC(N)=O)C(=O)N[C@@H]([C@@H](C)O)C(=O)N[C@@H](C)C(=O)N[C@@H]([C@@H](C)O)C(=O)N1)[C@@H](C)O)C(=O)N[C@@H](C)C(=O)N[C@@H](CC(N)=O)C(=O)N[C@@H](Cc1ccccc1)C(=O)N[C@@H](CC(C)C)C(=O)N[C@@H](CCCNC(=N)N)C(=O)N[C@@H](Cc1c[nH]cn1)C(=O)N[C@@H](CO)C(=O)N[C@@H](CO)C(=O)N[C@@H](CC(N)=O)C(=O)N[C@@H](CC(N)=O)C(=O)N[C@@H](Cc1ccccc1)C(=O)NCC(=O)N[C@@H](C)C(=O)N1CCC[C@H]1C(=O)N[C@@H](CC(C)C)C(=O)N[C@@H](CO)C(=O)N[C@@H](CO)C(=O)N[C@H](C(=O)N[C@@H](CC(N)=O)C(=O)N[C@H](C(=O)NCC(=O)N[C@@H](CO)C(=O)N[C@@H](CC(N)=O)C(=O)N[C@H](C(=O)N[C@@H](Cc1ccc(O)cc1)C(N)=O)[C@@H](C)O)C(C)C)[C@@H](C)O [Example 46, N-alpha-[(S)-4-Carboxy-4-(19-carboxynonadecanoylamino)butyryl]-Glu-Arg-[Glu1,Arg17,Ala25,Pro26,Ser28,Ser29]-pramlintide] ({C20 diacid-γGlu}-ERECNTATCATQRLANFLRHSSNNFGAPLSSTNVGSNTY-NH2; disulfide 4-9) |
